Laboratory results as given in patent US6784153B1, “Methods of homing molecules to lung using membrane dipeptidase” (The Burnham Institute, priority 1998, dated 2004).
Entries after “also recorded” stand apart in the source; their conditions may differ.

Assays:
lung = test: in vivo homing of phage displaying peptides to lung; design: species or system mice; conditions: for homing of lung homing phage to control kidney or brain: control organs
Procedure: For lung and pancreas, a mixture of phage libraries containing 10^10 TU was diluted in 200 μl DMEM and injected into the tail vein of anesthetized BALB/c mice (2 month old; Harlan Sprague Dawley; San Diego Calif.); AVERTIN (0.017 ml/g) was used as anesthetic (Pasqualini and Ruoslahti, supra, 1996). After 1-4 minutes, mice were snap frozen in liquid nitrogen or, after about 5 minutes of phage circulation, the mice were perfused through the heart with 5-10 ml of DMEM (SIGMA; St. Louis Mo.). To recover the phage, the organs from the perfused mice or partially thawed organs from snap frozen mice were collected and weighed, then were homogenized in 1 ml DMEM-PI (DMEM containing protease inhibitors (PI); phenylmethyl sulfonyl fluoride (PMSF; 1 mM), aprotinin (20 μg/ml), leupeptin (1 μg/ml)).
Organ samples were washed 3 times with ice cold DMEM-PI containing 1% bovine serum albumin (BSA), then directly incubated with 1 ml K91-kan bacteria for 1 hr. Ten ml NZY medium containing 0.2 μg/ml tetracycline (NZY/tet) was added to the bacterial culture, the mixture was incubated in a 37° C. shaker for 1 hr, then 200 μl aliquots were plated in agar plates containing 40 μg/ml tetracycline (tet/agar).
Approximately 250 to 300 individual bacterial colonies containing phage recovered from the various organs or tissues were grown for 16 hr in 5 ml NZY/tet. In some experiments, approximately 1000 individual bacteria containing phage were picked and the phage were amplified in 2 ml of NZY/tet or the entire plate containing phage was scraped, pooled and grown in bulk and processed for injection. Where phage were cultured separately, the cultures were pooled and the phage were injected into mice or rats as described above for a second round of in vivo panning. In some experiments, a third or fourth round of panning was performed. Phage DNA was purified from individual bacterial colonies obtained and the DNA sequences encoding the peptides expressed by selected phage were determined (see Koivunen et al., supra, 1994b).
After two or three rounds of in vivo panning of mice injected with a cyclic CX3CX3CX3C (SEQ ID NO: 25) or a cyclic CX6C (SEQ ID NO: 26) phage display library, four peptides that homed to lung were identified.
To determine the specificity of lung homing of the individual peptides identified, phage displaying the peptides were amplified individually, diluted to the same input titer and administered to mice. Following administration, control kidney and brain organ was removed and the number of TU of phage in lung, kidney and brain was determined. The results shown in FIG. 2 reveal that 10× and 35× more phage having the peptide sequence CGFECVRQCPERC (SEQ ID NO: 1; GFE-1) bound to lung than to kidney and brain, respectively. […] The lung homing peptides CGFECVRQCPERC (SEQ ID NO: 1; GFE-1), CGFELETC (SEQ ID NO: 2; GFE-2), CTLRDRNC (SEQ ID NO: 15) and CIGEVEVC (SEQ ID NO: 16) are enriched in lung at 35×, 9×, 6× and 5×, respectively, over unselected phage (see FIG. 2).

murine MDP = biological target: T1, murine MDP (Mus musculus, UniProt P31428); test: phage binding to COS-1 cells transfected with MDP
T1 construct: The amplified 1.3 kb murine MDP cDNA was digested with KpnI and XbaI, and inserted into the same sites of the pcDNA3 expression vector; expressed in transfected cells; host or cells: COS-1 cells, pcDNA3 expression vector
T1 sequence (P31428 17-384): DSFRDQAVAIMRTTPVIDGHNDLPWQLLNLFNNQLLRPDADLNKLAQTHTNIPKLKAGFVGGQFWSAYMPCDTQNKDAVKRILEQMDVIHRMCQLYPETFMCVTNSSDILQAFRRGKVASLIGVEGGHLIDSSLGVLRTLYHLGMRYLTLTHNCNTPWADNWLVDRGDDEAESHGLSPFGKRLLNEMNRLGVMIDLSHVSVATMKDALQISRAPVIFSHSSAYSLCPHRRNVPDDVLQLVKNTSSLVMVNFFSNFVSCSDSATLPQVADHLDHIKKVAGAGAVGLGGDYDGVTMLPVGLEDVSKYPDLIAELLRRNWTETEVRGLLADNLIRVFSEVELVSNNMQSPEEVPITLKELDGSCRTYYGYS
Procedure: The COS-1 cell line, which is known to have low or no detectable level of MDP activity, has been used extensively to study MDP structure and function (Keynan et al., supra, 1996; Keynan et al., Biochem, J. 326:47-51 (1997)). COS-1 cells were trasfected with murine MDP and used to assay binding to SEQ ID NOS: 1 and 2 as described below.
For transfection into COS-1 cells, a murine MDP expression vector was prepared as follows. Total mouse lung RNA was isolated using Qiagen RNA purification columns (Qiagen; Santa Clarita, Calif.) and used as a template for first strand cDNA synthesis with reverse transcriptase and a mixture of random hexamers and poly-dT oligonucleotides (GIBCO/BRL; Grand Island, N.Y.). Mouse MDP cDNA (Pasqualini et al., J. Cell Biol. 130:1189-1196 (1995)) was amplified from the cDNA pool by PCR using the oligonucleotide pair: […] (SEQ ID NO: 446), which contains a KpnI adaptor, and […] (SEQ ID NO: 447), which contains an XbaI adaptor, using Taq polymerase from GIBCO/BRL. The amplified 1.3 kb murine MDP cDNA was digested with KpnI and XbaI, and inserted into the same sites of the pcDNA3 expression vector (Invitrogen; Carlsbad, Calif.) using DNA restriction enzymes and T4 DNA ligase from New England Biolabs (Beverly, Mass.). Successful cloning of the murine MDP cDNA was confirmed by DNA sequencing. Transfection of the COS-1 cells was performed with the Superfect Reagent from Qiagen as recommended by the manufacturer.
Phage binding to COS-1 cells transfected with MDP was determined as follows. Briefly, 10^7 COS-1 cells were transfected with 10 μg of either the MDP expression vector or the vector alone. After 48 hours, cells were scraped gently from the dish, washed once, and subjected to the phage binding assay or membrane dipeptidase activity assay described above. For the phage binding assay, 5×10^6 cells and 10^10 transducing units (TU) of phage input were used. For measurement of membrane dipeptidase activity, 10^6 cells were lysed in 100 μl of PBS/octylglycoside without protease inhibitors. A 10 μl aliquot of the extract was used to measure MDP activity.

[1] = individually amplified phage, FIG. 2

## CGFECVRQCPERC [lung homing peptide]
lung; LUNG
  % OF MOTIF AMONG ALL CLONES: 40%
lung; LUNG section
  LUNG/BRAIN RATIO: 60
lung
  homing of lung homing phage to control kidney or brain: few phage detected in kidney or brain; also recorded: no selective homing to kidney or brain was detected
lung; listed as GFE-1
  homing of lung homing phage to control kidney or brain: no specific phage homing to kidney was detected
lung; [1]
  enriched in lung over unselected phage: 35 ×
  phage bound to lung than to brain: 35 ×
  phage bound to lung than to kidney: 10 ×
Murine MDP; 5×10^6 COS-1 cells, 10^10 TU phage
  phage bound to MDP transfected cells than to mock transfected cells: 4 fold
Murine MDP; data not shown
  inhibition of binding of GFE-1 and GFE-2 phage to MDP-transfected cells: completely inhibited
